Data from US20190274303A1, “USE OF A DIFLUORO-(2-HYDROXYPROPYL)PYRIDINE COMPOUND AS A FUNGICIDE FOR CONTROL OF PHYTOPATHOGENIC FUNGI OF BARLEY” (Dow AgroSciences LLC, priority 2016, published 2019).

Test system: Puccinia hordei (PUCCHD)
Experiment: Field assessment of barley rust
Type: in vivo
Conditions: for Percent Control PUCCHD: based on AUDPC, winter barley, field
Experimental: Field Assessment of Puccinia hordei (PUCCHD) in Barley:
A fungicidal treatment containing Compound I was assessed against barley rust (PUCCHD) in two separate field trials. In each trial, fungicidal treatments of Compound I were applied using two separate adjuvant systems. In the first system, an EC formulation of compound I was tank mixed with Agnique BP-420 (50%) at an active:adjuvant ratio of 1:2. The second adjuvant system was an SC formulation of Compound I tank mixed with Agnique BP-420 EW (38.5%) at an active:adjuvant ratio of 1:2 and Agnique FOH TDA-9 (30% w/w) applied at 0.33% V/V. Both the EC and SC formulation was sprayed on barley plants at rates of 25, 50, 75, 100, 150, 200 and 250 grams active ingredient per hectare (g ai/ha). Fungicidal treatments were applied at B39 (early curative, 1% infection on leaf 1) growth stage of winter barley (HORVW, Maris Otter and Lomerit variety) under natural infection of PUCCHD. The treatment was part of an experimental trial designed as a randomized complete block with four replications.
Disease severity was recorded as a percentage of visual diseased foliage on whole plot. Barley rust infection was recorded following EPPO PP1/26 guideline prescriptions. Area under the disease progress curve (AUDPC) was calculated for each plot using the sets of recorded severity data. Relative AUDPC (% control based on AUDPC) was calculated as percent of the nontreated control.
In each case of the following Tables, the rating scale of percent control based on AUDPC is as follows: […]

N#Cc1ccc(Oc2ccc(C(F)(F)C(O)(Cn3ncnc3S)c3ccc(F)cc3F)nc2)cc1 (stereo not drawn) [Compound I, 4-((6-(2-(2,4-difluorophenyl)-1,1-difluoro-2-hydroxy-3-(5-mercapto-1H-1,2,4-triazol-1-yl)propyl)pyridin-3-yl)oxy)benzonitrile]
fungicidal effect on Puccinia Hordei (barley rust, general statement): significant fungicidal effect | Percent Control PUCCHD (25 g ai/ha, EC + Agnique BP-420): B (51-74) | Percent Control PUCCHD (25 g ai/ha, SC + Agnique BP-420 EW and Agnique FOH TDA-9): B (51-74) | Percent Control PUCCHD (50 g ai/ha, EC + Agnique BP-420): B (51-74) | Percent Control PUCCHD (50 g ai/ha, Sc (SC + Agnique BP-420 EW and Agnique FOH TDA-9)): B (51-74) | Percent Control PUCCHD (75 g ai/ha, EC + Agnique BP-420): A (75-100) | Percent Control PUCCHD (75 g ai/ha, SC + Agnique BP-420 EW and Agnique FOH TDA-9): B (51-74) | Percent Control PUCCHD (100 g ai/ha, EC + Agnique BP-420): A (75-100) | Percent Control PUCCHD (100 g ai/ha, SC + Agnique BP-420 EW and Agnique FOH TDA-9): A (75-100) | Percent Control PUCCHD (150 g ai/ha, EC + Agnique BP-420): A (75-100) | Percent Control PUCCHD (150 g ai/ha, SC + Agnique BP-420 EW and Agnique FOH TDA-9): A (75-100) | Percent Control PUCCHD (200 g ai/ha, EC + Agnique BP-420): A (75-100) | Percent Control PUCCHD (200 g ai/ha, SC + Agnique BP-420 EW and Agnique FOH TDA-9): A (75-100) | Percent Control PUCCHD (250 g ai/ha, EC + Agnique BP-420): A (75-100) | Percent Control PUCCHD (250 g ai/ha, SC + Agnique BP-420 EW and Agnique FOH TDA-9): A (75-100)
